# Experimental data published in US6096930A, “Herbicidal cyclohexane-1,3-dione derivatives and their preparation process” (Korea Research Institute of Chemical Technology, priority 1994, dated 2000).
# Where two headings read alike, the source gives them in different places.
# Key:
# Assay in all cases: Herbicidal activity for paddy test
# Format in all cases: in vivo
# [1] = tested on: ECHOR; conditions: for pest or weed control at 2 g/ha: 0.002 kg/ha; for pest or weed control at 8 g/ha: 0.008 kg/ha; for pest or weed control at 31 g/ha: 0.031 kg/ha; for pest or weed control at 125 g/ha: 0.125 kg/ha; for pest or weed control at 500 g/ha: 0.500 kg/ha
# Text: (§1) The sterilized sandy loam soil is filled in test pot having a surface area of 348 cm^2 for upland test conditions or 115 cm^2 for paddy test species were planted in furrows.
# (§2) The herbicidal activity data were taken visually by percent control, wherein 0 signifies no herbicidal effect and 100 signifies complete kill.
# [2] = tested on: MOOVA; conditions: for pest or weed control at 2 g/ha: 0.002 kg/ha; for pest or weed control at 8 g/ha: 0.008 kg/ha; for pest or weed control at 31 g/ha: 0.031 kg/ha; for pest or weed control at 125 g/ha: 0.125 kg/ha; for pest or weed control at 500 g/ha: 0.500 kg/ha
# Text: as §1, §2
# [3] = tested on: ORYSA; conditions: for plant injury at 2 g/ha: 0.002 kg/ha; for plant injury at 8 g/ha: 0.008 kg/ha; for plant injury at 31 g/ha: 0.031 kg/ha; for plant injury at 125 g/ha: 0.125 kg/ha; for plant injury at 500 g/ha: 0.500 kg/ha
# Text: as §1, §2
# [4] = tested on: SAGPY; conditions: for pest or weed control at 2 g/ha: 0.002 kg/ha; for pest or weed control at 8 g/ha: 0.008 kg/ha; for pest or weed control at 31 g/ha: 0.031 kg/ha; for pest or weed control at 125 g/ha: 0.125 kg/ha; for pest or weed control at 500 g/ha: 0.500 kg/ha
# Text: as §1, §2
# [5] = tested on: SCPJU; conditions: for pest or weed control at 2 g/ha: 0.002 kg/ha; for pest or weed control at 8 g/ha: 0.008 kg/ha; for pest or weed control at 31 g/ha: 0.031 kg/ha; for pest or weed control at 125 g/ha: 0.125 kg/ha; for pest or weed control at 500 g/ha: 0.500 kg/ha
# Text: as §1, §2
# [6] = 3 Leaf, read-out: Herbicidal activity, ORYSA (3 Leaf)
# [7] = seed, read-out: Herbicidal activity, ORYSA (seed)
Structure (SMILES),pest or weed control at 2 g/ha [1] [%],pest or weed control at 8 g/ha [1] [%],pest or weed control at 31 g/ha [1] [%],pest or weed control at 125 g/ha [1] [%],pest or weed control at 500 g/ha [1] [%],pest or weed control at 2 g/ha [2] [%],pest or weed control at 8 g/ha [2] [%],pest or weed control at 31 g/ha [2] [%],pest or weed control at 125 g/ha [2] [%],pest or weed control at 500 g/ha [2] [%],"plant injury at 2 g/ha [3, 6] [%]","plant injury at 8 g/ha [3, 6] [%]","plant injury at 31 g/ha [3, 6] [%]","plant injury at 125 g/ha [3, 6] [%]","plant injury at 500 g/ha [3, 6] [%]","plant injury at 2 g/ha [3, 7] [%]","plant injury at 8 g/ha [3, 7] [%]","plant injury at 31 g/ha [3, 7] [%]","plant injury at 125 g/ha [3, 7] [%]","plant injury at 500 g/ha [3, 7] [%]",other results
CCCC(=NOC)C1=C(O)CC(c2c(C)c3c(c(C)c2Cl)CC(C)(C)C3)CC1=O (stereo not drawn) [Compound 25],0,0,100,100,100,0,0,0,0,0,0,0,0,0,50,0,0,60,100,100,pest or weed control at 2 g/ha [4]: 0%; pest or weed control at 8 g/ha [4]: 0%; pest or weed control at 31 g/ha [4]: 0%; pest or weed control at 125 g/ha [4]: 0%; pest or weed control at 500 g/ha [4]: 0%; pest or weed control at 2 g/ha [5]: 0%; pest or weed control at 8 g/ha [5]: 0%; pest or weed control at 31 g/ha [5]: 0%; pest or weed control at 125 g/ha [5]: 0%; pest or weed control at 500 g/ha [5]: 0%
"CCCC(=NOCC)C1=C(O)CC(c2c(C)c3c(c(C)c2Cl)CC(C)(C)C3)CC1=O (stereo not drawn) [Compound 26, 5-(6-Chloro-2,2,4,7-tetramethylindan-5-yl)-2-[1-(ethoxyimino)butyl]-3-hydroxycyclohex-2-en-1-one]",0,0,100,100,100,0,0,0,0,0,0,0,0,0,30,0,0,20,100,100,pest or weed control at 2 g/ha [4]: 0%; pest or weed control at 8 g/ha [4]: 0%; pest or weed control at 31 g/ha [4]: 0%; pest or weed control at 125 g/ha [4]: 0%; pest or weed control at 500 g/ha [4]: 0%; pest or weed control at 2 g/ha [5]: 0%; pest or weed control at 8 g/ha [5]: 0%; pest or weed control at 31 g/ha [5]: 0%; pest or weed control at 125 g/ha [5]: 0%; pest or weed control at 500 g/ha [5]: 40%
C=CCON=C(CCC)C1=C(O)CC(c2c(C)c(C)c3c(c2C)CC(C)(CC)C3)CC1=O (stereo not drawn) [Compound 18],0,30,70,100,100,0,0,0,0,0,0,0,0,0,0,0,0,0,30,100,pest or weed control at 2 g/ha [4]: 0%; pest or weed control at 8 g/ha [4]: 0%; pest or weed control at 31 g/ha [4]: 0%; pest or weed control at 125 g/ha [4]: 0%; pest or weed control at 500 g/ha [4]: 0%; pest or weed control at 2 g/ha [5]: 0%; pest or weed control at 8 g/ha [5]: 0%; pest or weed control at 31 g/ha [5]: 0%; pest or weed control at 125 g/ha [5]: 0%; pest or weed control at 500 g/ha [5]: 0%
C=CCON=C(CC)C1=C(O)CC(c2c(C)c(C)c3c(c2Cl)CC(C)(C)C3)CC1=O (stereo not drawn) [Compound 40],0,0,0,100,100,0,0,0,0,0,0,0,0,0,0,0,0,0,0,100,pest or weed control at 2 g/ha [4]: 0%; pest or weed control at 8 g/ha [4]: 0%; pest or weed control at 31 g/ha [4]: 0%; pest or weed control at 125 g/ha [4]: 0%; pest or weed control at 500 g/ha [4]: 0%; pest or weed control at 2 g/ha [5]: 0%; pest or weed control at 8 g/ha [5]: 0%; pest or weed control at 31 g/ha [5]: 0%; pest or weed control at 125 g/ha [5]: 0%; pest or weed control at 500 g/ha [5]: 0%
CCON=C(CC)C1=C(O)CC(c2c(C)c(C)c3c(c2C)CC(C)(CC)C3)CC1=O (stereo not drawn) [Compound 12],30,70,100,100,100,0,0,0,0,50,0,0,0,0,40,0,0,30,100,100,pest or weed control at 2 g/ha [4]: 0%; pest or weed control at 8 g/ha [4]: 0%; pest or weed control at 31 g/ha [4]: 0%; pest or weed control at 125 g/ha [4]: 0%; pest or weed control at 500 g/ha [4]: 30%; pest or weed control at 2 g/ha [5]: 0%; pest or weed control at 8 g/ha [5]: 0%; pest or weed control at 31 g/ha [5]: 0%; pest or weed control at 125 g/ha [5]: 0%; pest or weed control at 500 g/ha [5]: 60%
C=CCON=C(CC)C1=C(O)CC(c2c(C)c3c(c(C)c2Cl)CC(C)(C)C3)CC1=O (stereo not drawn) [Compound 23],0,40,100,100,100,0,0,0,0,0,0,0,0,0,60,0,10,100,100,100,pest or weed control at 2 g/ha [4]: 0%; pest or weed control at 8 g/ha [4]: 0%; pest or weed control at 31 g/ha [4]: 0%; pest or weed control at 125 g/ha [4]: 0%; pest or weed control at 500 g/ha [4]: 0%; pest or weed control at 2 g/ha [5]: 0%; pest or weed control at 8 g/ha [5]: 0%; pest or weed control at 31 g/ha [5]: 0%; pest or weed control at 125 g/ha [5]: 0%; pest or weed control at 500 g/ha [5]: 0%
C=CCON=C(CCC)C1=C(O)CC(c2c(C)c(C)c3c(c2C)CC(C)(C)C3)CC1=O (stereo not drawn) [Compound 8],0,40,100,100,100,0,0,0,0,0,0,0,0,0,0,0,0,60,100,100,pest or weed control at 2 g/ha [4]: 0%; pest or weed control at 8 g/ha [4]: 0%; pest or weed control at 31 g/ha [4]: 0%; pest or weed control at 125 g/ha [4]: 0%; pest or weed control at 500 g/ha [4]: 0%; pest or weed control at 2 g/ha [5]: 0%; pest or weed control at 8 g/ha [5]: 0%; pest or weed control at 31 g/ha [5]: 0%; pest or weed control at 125 g/ha [5]: 0%; pest or weed control at 500 g/ha [5]: 0%
